Laboratory results from patent US7049313B2, “ATM inhibitors” (Kudos Pharmaceuticals Ltd., priority 2002, dated 2006).
Structures can show the parent of a compound that is named as a salt.

Biological target: T1, ATM (Homo sapiens, UniProt Q13315)
T1 construct: ATM protein was immunoprecipitated from HeLa cell nuclear extract; endogenous in cells; host or cells: HeLa cell nuclear extract (immunoprecipitate)
Assay: In vitro ATM inhibition assay (phosphorylation of GSTp53N66 on serine 15)
Format: biochemical
Method: In vitro ATM inhibition Assays
In order to assess the inhibitory action of the compounds against ATM in vitro, the following assay was used to determine IC50 values.
ATM protein was immunoprecipitated from HeLa cell nuclear extract using rabbit polyclonal anti-sera raised to the C-terminal ˜500 amino-acid residues of the human ATM protein. The immunoprecipitation was performed according to the methodology described by Banin, S. et al. (1998). 10 μl of immunoprecipitated ATM in Buffer C (50 mM Hepes, pH 7.4, 6 mM MgCl2, 150 mM NaCl, 0.1 mM sodium orthovanadate, 4 mM MnCl2, 0.1 mM dithiothreitol, 10% glycerol) was added to 32.5 μl of buffer C containing 1 μg of the ATM substrate GSTp53N66 in a V-bottomed 96 well polypropylene plate. The GSTp53N66 substrate is the amino terminal 66 amino acid residues of human wild type p53 fused to glutathione S-transferase. ATM phosphorylates p53 on the residue serine 15 (Banin, S. et al. (1998)). Varying concentrations of inhibitor were then added. […] After 10 minutes of incubation at 37° C., the reactions were initiated by the addition of 5 μl of 500 μM Na-ATP. After 1 hour with shaking at 37° C., 150 μl of phosphate buffered saline (PBS) was added to the reaction and the plate centrifuged at 1500 rpm for 10 minutes. 5 μl of the reaction was then transferred to a 96 well opaque white plate containing 45 μl of PBS to allow the GSTp53N66 substrate to bind to the plate wells. The plate was covered and incubated at room temperature for 1 hour with shaking before discarding the contents. The plate wells were washed twice by the addition of PBS prior to the addition of 3% (w/v) bovine serum albumin (BSA) in PBS. The plate was incubated at room temperature for 1 hour with shaking before discarding the contents and washing twice with PBS. To the wells, 50 μl of a 1:10,000 dilution of primary phosphoserine-15 antibody (Cell Signaling Technology, #9284L) in 3% BSA/PBS was added to detect the phosphorylation event on the serine 15 residue of p53 elicited by the ATM kinase. After 1 hour of incubation at room temperature with shaking, the wells were washed four times with PBS prior to the addition of an anti-rabbit HRP conjugated secondary antibody (Pierce, 31462) with shaking for 1 hour at room temperature. The wells were then washed four times with PBS before the addition of chemiluminescence reagent (NEN Renaissance, NEL105). The plate was then shaken briefly, covered with a transparent plate seal and transferred to a TopCount NXT for chemiluminescent counting. Counts per second, following a one second counting time, were recorded for each reaction.
The enzyme activity for each compound is then calculated using the following equation: […]

T1 sequence (Q13315 whole entry): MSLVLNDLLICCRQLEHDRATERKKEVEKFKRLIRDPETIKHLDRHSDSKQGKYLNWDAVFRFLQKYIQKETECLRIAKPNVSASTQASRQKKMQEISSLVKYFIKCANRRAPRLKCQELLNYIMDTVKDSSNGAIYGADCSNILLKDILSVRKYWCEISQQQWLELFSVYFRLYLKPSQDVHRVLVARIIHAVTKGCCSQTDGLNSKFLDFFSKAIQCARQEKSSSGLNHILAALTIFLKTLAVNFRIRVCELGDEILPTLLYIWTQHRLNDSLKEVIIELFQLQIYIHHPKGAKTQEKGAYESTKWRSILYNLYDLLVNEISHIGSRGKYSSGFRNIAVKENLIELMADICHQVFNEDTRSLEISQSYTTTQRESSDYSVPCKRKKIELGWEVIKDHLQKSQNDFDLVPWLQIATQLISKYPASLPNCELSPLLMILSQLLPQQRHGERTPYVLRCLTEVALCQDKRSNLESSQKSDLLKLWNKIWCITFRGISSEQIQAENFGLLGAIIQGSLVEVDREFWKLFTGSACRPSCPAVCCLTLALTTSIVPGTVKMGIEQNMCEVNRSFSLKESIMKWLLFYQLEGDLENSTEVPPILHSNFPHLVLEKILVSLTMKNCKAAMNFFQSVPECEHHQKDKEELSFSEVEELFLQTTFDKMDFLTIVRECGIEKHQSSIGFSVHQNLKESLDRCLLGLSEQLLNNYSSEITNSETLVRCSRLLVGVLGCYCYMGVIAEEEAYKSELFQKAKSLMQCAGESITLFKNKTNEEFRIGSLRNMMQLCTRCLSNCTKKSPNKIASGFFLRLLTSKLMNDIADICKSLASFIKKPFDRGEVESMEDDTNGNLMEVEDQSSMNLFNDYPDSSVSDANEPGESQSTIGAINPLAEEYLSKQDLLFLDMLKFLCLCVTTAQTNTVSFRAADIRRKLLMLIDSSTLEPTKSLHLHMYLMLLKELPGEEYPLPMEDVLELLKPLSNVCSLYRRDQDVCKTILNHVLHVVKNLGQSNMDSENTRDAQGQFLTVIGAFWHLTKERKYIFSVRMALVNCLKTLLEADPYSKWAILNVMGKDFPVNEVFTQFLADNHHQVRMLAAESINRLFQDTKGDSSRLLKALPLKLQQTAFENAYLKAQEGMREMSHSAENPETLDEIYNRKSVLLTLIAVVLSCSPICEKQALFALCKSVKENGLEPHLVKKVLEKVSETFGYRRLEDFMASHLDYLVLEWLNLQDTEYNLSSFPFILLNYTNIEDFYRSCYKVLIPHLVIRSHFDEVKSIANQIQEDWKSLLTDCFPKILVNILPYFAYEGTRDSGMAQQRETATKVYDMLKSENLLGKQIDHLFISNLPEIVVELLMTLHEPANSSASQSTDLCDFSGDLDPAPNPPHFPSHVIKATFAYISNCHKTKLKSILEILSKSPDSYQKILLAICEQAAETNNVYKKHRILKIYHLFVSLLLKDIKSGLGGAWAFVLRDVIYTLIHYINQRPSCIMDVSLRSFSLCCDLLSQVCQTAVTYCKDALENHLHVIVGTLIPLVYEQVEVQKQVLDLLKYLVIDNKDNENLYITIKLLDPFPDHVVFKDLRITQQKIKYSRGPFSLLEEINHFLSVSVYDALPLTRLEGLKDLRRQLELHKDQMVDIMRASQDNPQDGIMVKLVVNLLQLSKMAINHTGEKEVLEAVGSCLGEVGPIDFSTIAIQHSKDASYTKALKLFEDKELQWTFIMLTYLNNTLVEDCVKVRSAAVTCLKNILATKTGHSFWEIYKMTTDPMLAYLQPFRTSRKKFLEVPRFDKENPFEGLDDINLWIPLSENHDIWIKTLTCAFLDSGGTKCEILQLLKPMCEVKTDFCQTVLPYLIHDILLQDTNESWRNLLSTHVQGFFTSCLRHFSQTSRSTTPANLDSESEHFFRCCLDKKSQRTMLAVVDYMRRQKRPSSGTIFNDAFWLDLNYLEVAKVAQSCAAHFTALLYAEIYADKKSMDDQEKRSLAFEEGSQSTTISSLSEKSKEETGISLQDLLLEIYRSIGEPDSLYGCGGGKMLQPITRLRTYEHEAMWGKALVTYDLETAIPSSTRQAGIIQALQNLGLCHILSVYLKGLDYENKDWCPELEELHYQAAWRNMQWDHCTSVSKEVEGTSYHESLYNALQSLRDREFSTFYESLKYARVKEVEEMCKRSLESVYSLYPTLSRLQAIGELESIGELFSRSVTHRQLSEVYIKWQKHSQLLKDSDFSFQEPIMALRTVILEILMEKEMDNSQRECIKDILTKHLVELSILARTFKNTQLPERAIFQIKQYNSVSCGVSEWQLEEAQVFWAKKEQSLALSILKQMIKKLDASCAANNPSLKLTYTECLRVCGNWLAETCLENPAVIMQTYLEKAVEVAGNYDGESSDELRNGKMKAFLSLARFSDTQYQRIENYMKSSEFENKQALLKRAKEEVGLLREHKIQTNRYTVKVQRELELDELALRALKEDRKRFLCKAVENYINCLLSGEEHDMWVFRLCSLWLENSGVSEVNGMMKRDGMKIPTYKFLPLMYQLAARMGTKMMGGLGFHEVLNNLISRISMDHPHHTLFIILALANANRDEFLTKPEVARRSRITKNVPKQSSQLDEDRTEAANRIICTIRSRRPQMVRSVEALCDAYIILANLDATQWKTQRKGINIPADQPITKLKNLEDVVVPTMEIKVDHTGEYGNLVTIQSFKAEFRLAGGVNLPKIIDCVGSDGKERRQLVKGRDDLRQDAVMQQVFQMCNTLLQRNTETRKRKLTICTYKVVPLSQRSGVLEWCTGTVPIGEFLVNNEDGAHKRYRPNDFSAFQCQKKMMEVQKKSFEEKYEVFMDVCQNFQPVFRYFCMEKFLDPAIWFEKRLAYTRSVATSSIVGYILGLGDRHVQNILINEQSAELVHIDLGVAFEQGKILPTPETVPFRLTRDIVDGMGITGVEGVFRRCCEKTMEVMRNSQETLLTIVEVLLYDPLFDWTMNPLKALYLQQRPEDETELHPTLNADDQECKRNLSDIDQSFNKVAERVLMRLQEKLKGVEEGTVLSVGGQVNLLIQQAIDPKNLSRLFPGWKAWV

| IC50 | Compound |
| --- | --- |
| < 200 nM | S=c1cc(-c2cccc3c2Sc2ccccc2S3)oc(N2CCOCC2)c1 [Compound 18, 2-Thianthren-1-yl-6-morpholin-4-yl-pyran-4-thione] |
| < 200 nM | O=C(NCCN1CCCCC1)c1ccc2c(c1)Sc1cccc(-c3cc(=O)cc(N4CCOCC4)o3)c1S2 [Compound 166] |
| < 200 nM | O=C(NCCN1CCN(Cc2ccccc2)CC1)c1ccc2c(c1)Sc1cccc(-c3cc(=O)cc(N4CCOCC4)o3)c1S2 [Compound 179] |
| < 200 nM | O=C(Nc1ccc(-c2cc(=O)cc(N3CCOCC3)o2)c2c1Cc1ccccc1S2)c1ccc2c(c1)OCO2 [Compound 115] |
| < 200 nM | O=C(CNCCO)Nc1ccc2c(c1)Cc1cccc(-c3cc(=O)cc(N4CCOCC4)o3)c1S2 [Compound 56] |
| < 200 nM | O=c1cc(-c2ccc(F)c3c2Sc2ccccc2C3)oc(N2CCOCC2)c1 [Compound 17, 2-(1-Fluoro-9H-thioxanthen-4-yl)-6-morpholin-4-yl-pyran-4-one] |
| < 200 nM | O=C(CCNCC1CCCO1)Nc1ccc2c(c1)Cc1cccc(-c3cc(=O)cc(N4CCOCC4)o3)c1S2 (centres unmarked) [Compound 86] |
| < 200 nM | O=C(Nc1ccc2c(c1)Cc1cccc(-c3cc(=O)cc(N4CCOCC4)o3)c1S2)c1ccno1 [Compound 47] |
| < 200 nM | O=C(CCN1CCCNCC1)Nc1ccc2c(c1)Cc1cccc(-c3cc(=O)cc(N4CCOCC4)o3)c1S2 [Compound 78] |
| < 200 nM | O=C(NNC(=O)c1ccc2c(c1)Sc1cccc(-c3cc(=O)cc(N4CCOCC4)o3)c1S2)c1ccccc1 [Compound 162] |
| < 200 nM | CCCCNC(=O)c1ccc2c(c1)Sc1cccc(-c3cc(=O)cc(N4CCOCC4)o3)c1S2 [Compound 143] |
| < 200 nM | CC(=O)Oc1ccccc1C(=O)Nc1ccc2c(c1)Cc1cccc(-c3cc(=O)cc(N4CCOCC4)o3)c1S2 [Compound 37] |
| < 200 nM | O=C(CNCC1CCCO1)Nc1ccc2c(c1)Cc1cccc(-c3cc(=O)cc(N4CCOCC4)o3)c1S2 (centres unmarked) [Compound 68] |
| < 200 nM | O=C(CN1CCCCCC1)Nc1ccc2c(c1)Cc1cccc(-c3cc(=O)cc(N4CCOCC4)o3)c1S2 [Compound 61] |
| < 200 nM | Cc1cc(C(=O)Nc2ccc3c(c2)Cc2cccc(-c4cc(=O)cc(N5CCOCC5)o4)c2S3)c(C)o1 [Compound 42] |
| < 200 nM | O=C(CNCCCN1CCOCC1)Nc1ccc2c(c1)Cc1cccc(-c3cc(=O)cc(N4CCOCC4)o3)c1S2 [Compound 62] |
| < 200 nM | O=C(Nc1ccc(-c2cc(=O)cc(N3CCOCC3)o2)c2c1Cc1ccccc1S2)c1ccco1 [Compound 107] |
| < 200 nM | O=C(c1ccc2c(c1)Sc1cccc(-c3cc(=O)cc(N4CCOCC4)o3)c1S2)N1CCOCC1 [Compound 160] |
| < 200 nM | O=C(CCN1CCNCC1)Nc1ccc2c(c1)Cc1cccc(-c3cc(=O)cc(N4CCOCC4)o3)c1S2 [Compound 70] |
| < 200 nM | CC(C)(C)OC(=O)Nc1ccc2c(c1)Cc1cccc(-c3cc(=O)cc(N4CCOCC4)o3)c1S2 [Compound 19, [5-(6-Morpholin-4-yl-4-oxo-4H-pyran-2-yl)-9H-thioxanthen-2-yl]-carbamic acid tert-butyl ester] |
| < 200 nM | O=C(NCc1cccnc1)c1ccc2c(c1)Sc1cccc(-c3cc(=O)cc(N4CCOCC4)o3)c1S2 [Compound 171] |
| < 200 nM | COc1ccccc1C(=O)Nc1ccc2c(c1)Cc1cccc(-c3cc(=O)cc(N4CCOCC4)o3)c1S2 [Compound 29] |
| < 200 nM | CCN(CC)CCC(=O)Nc1ccc2c(c1)Cc1cccc(-c3cc(=O)cc(N4CCOCC4)o3)c1S2 [Compound 83] |
| < 200 nM | O=C(O)c1ccc2c(c1)Sc1cccc(-c3cc(=O)cc(N4CCOCC4)o3)c1S2 [Compound 138, 6-(6-Morpholin-4-yl-4-oxo-4H-pyran-2-yl)-thianthrene-2-carboxylate sodium salt] |
| < 200 nM | O=c1cc(-c2cccc3c2Sc2ccccc2CC3)oc(N2CCOCC2)c1 [Compound 133, 2-(10,11-Dihydro-dibenzo[b,f]thiepin-4-yl)-6-morpholin-4-yl-pyran-4-one] |
| < 200 nM | NCC(=O)Nc1ccc2c(c1)Cc1cccc(-c3cc(=O)cc(N4CCOCC4)o3)c1S2 [Compound 66] |
